Source: US11752125B2, “Anti-neuroinflammatory and protective compounds in Achillea fragrantissima” (THE STATE OF ISRAEL MINISTRY OF AGRICULTURE & RURAL …, priority 2013, dated 2023)

How the values were obtained:
astrocytes = assay: H2O2-induced intracellular ROS levels in astrocytes (DCF-DA); format: cell-based, rat; settings: for ability to reduce H2O2-induced ROS compared among TTF, quercetin and memantine: concentrations higher than 16 μM, ROS after 1 h, p>0.05
Method: Intracellular ROS levels were detected using the non-fluorescent cell permeating compound, 2′7′-dichlorofluorescein diacetate (DCF-DA). DCF-DA is hydrolyzed by intracellular esterases and then oxidized by ROS to a fluorescent compound 2′-7′-DCF. Astrocytes were plated onto 24 wells plates (300,000 cells/well) and treated with DCF-DA (20 μM) for 30 min at 37° C. Following incubation with DCF-DA, cultures were rinsed twice with PBS and then re-suspended in DMEM containing 10% FBS, 8.4 mM HEPES, 2 mM glutamine, 100 U/ml penicillin, and 100 μg/mL streptomycin. ROS levels (fluorescence) at time zero were measured in a plate reader with excitation at 485 nm and emission at 520 nm. Astrocytes were then treated with TTF for 2 h before the addition of H2O2 and ROS levels (fluorescence) were measured in a plate reader with excitation at 485 nm and emission at 520 nm every hour for 4 h.
1. Produce a primary culture of rat brain glial cells according to the method described in “Protective effects of the essential oil of salvia fruticosa and its constituents on astrocytic susceptibility to hydrogen peroxide-induced cell death”. 2009. A. Elmann, S. Mordechay, M. Rindner, O. Larkov, M. Elkabetz, U. Ravid. Journal of agricultural and food chemistry. 57(15):6636-41; 2. Separate astrocytes from other cell types in the culture according to the method described in “Protective effects of the essential oil of salvia fruticosa and its constituents on astrocytic susceptibility to hydrogen peroxide-induced cell death”. 2009. A. Elmann, S. Mordechay, M. Rindner, O. Larkov, M. Elkabetz, U. Ravid. Journal of agricultural and food chemistry. 57(15):6636-41; 3. Plate astrocytes (300,000 cells/0.5 ml/well of 24 wells plate) and incubate (37° C., 5% CO2) for 24 hr as described in: Elmann, A., et al., (2011). Extract of Achillea fragrantissima downregulates ROS production and protects astrocytes from oxidative-stress-induced cell death. In: “Neurodegenerative Diseases—Processes, Prevention, Protection and Monitoring”, ISBN 978-953-307-485-6, (Raymond Chuen-Chung Chang, ed). […] Read fluorescence of “time 0” at 485 nm (Extinction) and 528 nm (Emmision). […] Read fluorescence at 1, 2, 3, 4 hr after the addition of H2O2 (Ex: 485 nm and Em: 528 nm). […]
Astrocytes were pre-loaded with DCF-DA for 30 min and washed. […] ROS levels in astrocytes were measured 1 h and 4 h after the application of H2O2. […] H2O2 was added to the culture and the fluorescence intensity representing ROS levels was measured after 1 h. […]
Preloaded astrocytes were then preincubated for 2 h with various concentrations of achillolide A or memantine. H2O2(175 μM) was added and the fluorescence intensity was measured […]. […]

[1] = DPPH free radical scavenging assay; settings: cell free; 8 min
Method: Antioxidant activity was measured using the 2,2-diphenyl-1-pieryhydrazyl (DPPH) radical scavenging assay. Different dilutions of TTF (or control drugs) were added to 1 mL of DPPH (3.9 mg/100 mL methanol) in test tubes wrapped in aluminum foil. Absorbance (A) was measured at 517 nm after 8 min incubation in the dark. The scavenging ability (%) of the samples was calculated as (Acontrol−Asample)/Acontrol×100).
Antioxidant activity was measured using the 2,2-diphenyl-1-pieryhydrazyl (DPPH) radical scavenging assay. Different dilutions of achillolide A or quercetin were added to 1 mL of DPPH (3.9 mg/100 mL methanol) in test tubes wrapped in aluminum foil. Absorbance (A) was measured at 517 nm after 8 min incubation in the dark. The scavenging ability (%) of the samples was calculated as (Acontrol−Asample)/Acontrol×100).
The DPPH scavenging ability of TTF, memantine and quercetin were compared for eight minutes. Results are shown in FIG. 7 and are the mean±SEM of two experiments performed in duplicates (n=4).
The DPPH scavenging ability of achillolide A and quercetin were tested for eight minutes. Values represent the mean±SEM (n=4 for each concentration). **p<0.01; ***p<0.001, compared to a mixture without achillolide A or quercetin.

| SMILES | ability to reduce H2O2-induced ROS compared among TTF, quercetin and memantine (astrocytes; 2 h preincubation) | inhibition of DPPH absorbance at 517 nm (maximal scavenging ability) [1] [%] | effect on H2O2-induced ROS production (astrocytes; 2 h preincubation, H2O2 175 μM, fluorescence 20 h later) | IC50 [1] [µM] | effect on H2O2-induced intracellular ROS levels (astrocytes; 8 μM, H2O2 175 μM, ROS measured 1 h and 4 h after H2O2) |
| --- | --- | --- | --- | --- | --- |
| CC12CC3CC(C)(C1)CC(N)(C3)C2 [memantine, reference compound] | no significant difference | 7 |  |  |  |
| C=C1CCC2=C(CO)C(=O)O[C@H]2/C=C(\C)[C@H](OC(C)=O)CC1=O [achillolide A] |  | 60 | attenuates | 45 |  |
| COc1cc(-c2oc3cc(OC)c(OC)c(O)c3c(=O)c2O)ccc1O [TTF, 3,5,4′-trihydroxy-6,7,3′-trimethoxyflavone] |  | 60 |  | 45 | inhibited the H2O2-induced elevation of intracellular ROS |
| O=c1c(O)c(-c2ccc(O)c(O)c2)oc2cc(O)cc(O)c12 [quercetin, 3,3′,4′,5,7-Pentahydroxyflavone, reference compound] | no significant difference | 90 |  |  |  |
